Biological target: human GPR17 short isoform (Homo sapiens (Human), UniProt Q13304)
Assay: GPR17 cAMP assay (hGPR17 cAMP, antagonist mode against EC80 of MDL29,951)
Format: cell-based
Conditions: CHO-K1 cells stably expressing human GPR17 short isoform; EC80 of agonist MDL29,951; forskolin 15 μM
Outline: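 CHO-K1 cells stably expressing untagged human GPR17 short isoform, 10,000/well in HBSS/10 mM HEPES/0.1% BSA pH 7.4. Compounds added with EC80 MDL29,951 and 0.5 mM IBMX, then 15 μM forskolin 5 min later, 30 min at room temperature; cAMP by TR-FRET, normalized to reference antagonist, sigmoidal fit.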

Chain of human GPR17 short isoform (Q13304 29-367): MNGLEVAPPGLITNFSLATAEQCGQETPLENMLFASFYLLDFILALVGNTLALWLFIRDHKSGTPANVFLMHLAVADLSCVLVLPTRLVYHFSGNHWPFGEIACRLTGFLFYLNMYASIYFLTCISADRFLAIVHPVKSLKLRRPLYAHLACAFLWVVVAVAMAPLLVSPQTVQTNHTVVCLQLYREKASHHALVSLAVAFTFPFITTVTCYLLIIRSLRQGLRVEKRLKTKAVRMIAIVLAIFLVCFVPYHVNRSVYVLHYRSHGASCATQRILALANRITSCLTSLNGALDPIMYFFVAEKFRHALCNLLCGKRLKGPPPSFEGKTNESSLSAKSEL

Row | Compound | IC50 [nM]
1 | COc1nc(NS(=O)(=O)c2c[nH]c3cc(Br)ccc23)nc(OC)c1OC(F)F [Example 90, 6-bromo-N-[5-(difluoromethoxy)-4,6-dimethoxy-pyrimidin-2-yl]-1H-indole-3-sulfonamide] | 29
2 | COc1nc(NS(=O)(=O)c2c[nH]c3cc(C4CC4)ccc23)ncc1CC(F)F [Example 254, 6-cyclopropyl-N-[5-(2,2-difluoroethyl)-4-methoxy-pyrimidin-2-yl]-1H-indole-3-sulfonamide] | 75
3 | COc1nc(NS(=O)(=O)c2c[nH]c3c(C)c(Br)ccc23)ncc1CC(F)F [Example 184, 6-bromo-N-[5-(2,2-difluoroethyl)-4-methoxy-pyrimidin-2-yl]-7-methyl-1H-indole-3-sulfonamide] | 29
4 | COc1nc(NS(=O)(=O)c2c[nH]c3c(F)c(Cl)ccc23)ncc1OCCF [Example 2, 6-chloro-7-fluoro-N-[5-(2-fluoroethoxy)-4-methoxy-pyrimidin-2-yl]-1H-indole-3-sulfonamide] | 36
5 | COc1nc(NS(=O)(=O)c2c[nH]c3c(F)c(Cl)ccc23)nc(OC)c1CCC#N [Example 218, 6-chloro-N-[5-(2-cyanoethyl)-4,6-dimethoxy-pyrimidin-2-yl]-7-fluoro-1H-indole-3-sulfonamide] | 14
6 | COc1nc(NS(=O)(=O)c2c[nH]c3cc(Cl)ccc23)nc(OC)c1OC(F)(F)CO [Example 275, 6-chloro-N-[5-(1,1-difluoro-2-hydroxy-ethoxy)-4,6-dimethoxy-pyrimidin-2-yl]-1H-indole-3-sulfonamide] | 128
7 | COc1nc(NS(=O)(=O)c2c[nH]c3c(OCF)c(Cl)ccc23)ncc1CC(F)F [Example 198, 6-chloro-N-[5-(2,2-difluoroethyl)-4-methoxy-pyrimidin-2-yl]-7-(fluoromethoxy)-1H-indole-3-sulfonamide] | 36
8 | COc1nc(NS(=O)(=O)c2c[nH]c3cc(Cl)ccc23)nc(C(F)F)c1Br [Example 84, N-[5-bromo-4-(difluoromethyl)-6-methoxy-pyrimidin-2-yl]-6-chloro-1H-indole-3-sulfonamide] | 521
9 | COc1nc(NS(=O)(=O)c2c[nH]c3c(F)c(Br)ccc23)nc(OC)c1CCC#N [Example 243, 6-bromo-N-[5-(2-cyanoethyl)-4,6-dimethoxy-pyrimidin-2-yl]-7-fluoro-1H-indole-3-sulfonamide] | 9
10 | COc1nc(NS(=O)(=O)c2c[nH]c3cc(Cl)ccc23)ncc1C [Example 26, 6-chloro-N-(4-methoxy-5-methyl-pyrimidin-2-yl)-1H-indole-3-sulfonamide] | 809
11 | COc1nc(NS(=O)(=O)c2c[nH]c3nc(Cl)ccc23)nc(OC)c1Br [Example 31, N-(5-bromo-4,6-dimethoxy-pyrimidin-2-yl)-6-chloro-1h-pyrrolo[2,3-b]pyridine-3-sulfonamide] | 76
12 | COc1nc(NS(=O)(=O)c2c[nH]c3c(Cl)c(Cl)ccc23)ncc1CC(F)F [Example 210, 6,7-dichloro-N-[5-(2,2-difluoroethyl)-4-methoxy-pyrimidin-2-yl]-1H-indole-3-sulfonamide] | 18
13 | COc1nc(NS(=O)(=O)c2c[nH]c3nc(Br)ccc23)ncc1OCC(F)F [Example 161, 6-bromo-N-[5-(2,2-difluoroethoxy)-4-methoxy-pyrimidin-2-yl]-1H-pyrrolo[2,3-b]pyridine-3-sulfonamide] | 72
14 | COc1nc(NS(=O)(=O)c2c[nH]c3cc(F)ccc23)nc(OC)c1CC(F)F [Example 258, N-[5-(2,2-difluoroethyl)-4,6-dimethoxy-pyrimidin-2-yl]-6-fluoro-1H-indole-3-sulfonamide] | 37
15 | COc1nc(NS(=O)(=O)c2c[nH]c3cc(C(F)F)ccc23)nc(OC)c1CCC#N [Example 103, N-[5-(2-cyanoethyl)-4,6-dimethoxy-pyrimidin-2-yl]-6-(difluoromethyl)-1H-indole-3-sulfonamide] | 11
16 | COc1nc(NS(=O)(=O)c2c[nH]c3nc(Cl)ccc23)nc(OC)c1CC(F)F [Example 120, 6-chloro-N-[5-(2,2-difluoroethyl)-4,6-dimethoxy-pyrimidin-2-yl]-1H-pyrrolo[2,3-b]pyridine-3-sulfonamide] | 40
17 | COc1nc(NS(=O)(=O)c2c[nH]c3cc(Cl)ccc23)nc(OC)c1OC(F)F [Example 52, 6-chloro-N-[5-(difluoromethoxy)-4,6-dimethoxy-pyrimidin-2-yl]-1H-indole-3-sulfonamide] | 32
18 | COc1nc(NS(=O)(=O)c2c[nH]c3c2ccc2cccnc23)nc(OC)c1OC(F)F [Example 116, N-[5-(difluoromethoxy)-4,6-dimethoxy-pyrimidin-2-yl]-1H-pyrrolo[3,2-h]quinoline-3-sulfonamide] | 26
19 | COc1nc(NS(=O)(=O)c2c[nH]c3nc(Cl)ccc23)nc(OC)c1CCC(F)F [Example 121, 6-chloro-N-[5-(3,3-difluoropropyl)-4,6-dimethoxy-pyrimidin-2-yl]-1H-pyrrolo[2,3-b]pyridine-3-sulfonamide] | 16
20 | COc1nc(NS(=O)(=O)c2c[nH]c3nc(C(F)F)ccc23)nc(OC)c1CC(F)CF (stereo not shown) [Example 287, 6-(Difluoromethyl)-N-[5-(2,3-Difluoropropyl)-4,6-Dimethoxy-Pyrimidin-2-Yl]-1H-Pyrrolo[2,3-b]Pyridine-3-Sulfonamide] | 114
21 | COc1nc(NS(=O)(=O)c2c[nH]c3c(Br)c(Cl)ccc23)nc(OC)c1CC(F)F [Example 283, 7-Bromo-6-Chloro-N-[5-(2,2-Difluoroethyl)-4,6-Dimethoxy-Pyrimidin-2-Yl]-1H-Indole-3-Sulfonamide] | 13
22 | COc1nc(NS(=O)(=O)c2c[nH]c3cc(Cl)ccc23)ncc1CC1CC1 [Example 46, 6-chloro-N-[5-(cyclopropylmethyl)-4-methoxy-pyrimidin-2-yl]-1H-indole-3-sulfonamide] | 918

The remaining compounds from weak to strong by IC50, led by results:

Row | IC50 [nM] | Compound
23 | 2740 | COCCOc1nc(NS(=O)(=O)c2c[nH]c3cc(Cl)ccc23)nc(OC)c1Br [Example 70, N-[5-bromo-4-methoxy-6-(2-methoxyethoxy)pyrimidin-2-yl]-6-chloro-1H-indole-3-sulfonamide]
24 | 2060 | COc1nc(NS(=O)(=O)c2c[nH]c3cc(Cl)ccc23)nc(OC)c1OCC1COC1 [Example 263, 6-chloro-N-[4,6-dimethoxy-5-(oxetan-3-ylmethoxy)pyrimidin-2-yl]-1H-indole-3-sulfonamide]
25 | 290 | COc1nc(NS(=O)(=O)c2csc3nc(Cl)ccc23)nc(OC)c1OC(F)F [Example 271, 6-chloro-N-[5-(difluoromethoxy)-4,6-dimethoxy-pyrimidin-2-yl]thieno[2,3-b]pyridine-3-Sulfonamide]
26 | 244 | COc1nc(NS(=O)(=O)c2c[nH]c3cc(Cl)ccc23)nc(C)c1CC(F)F [Example 78, 6-chloro-N-[5-(2,2-difluoroethyl)-4-methoxy-6-methyl-pyrimidin-2-yl]-1H-indole-3-sulfonamide]
27 | 202 | COc1nc(NS(=O)(=O)c2c[nH]c3c(C4CC4)c(Cl)ccc23)ncc1CC(F)F [Example 233, 6-chloro-7-cyclopropyl-N-[5-(2,2-difluoroethyl)-4-methoxy-pyrimidin-2-yl]-1H-indole-3-sulfonamide]
28 | 176 | COc1nc(NS(=O)(=O)c2csc3cc(Br)ccc23)ncc1OCC(F)F [Example 157, 6-bromo-N-[5-(2,2-difluoroethoxy)-4-methoxy-pyrimidin-2-yl]benzothiophene-3-sulfonamide]
29 | 136 | COc1nc(NS(=O)(=O)c2c[nH]c3c([S+](C)[O-])c(Cl)ccc23)ncc1CC(F)F (stereo not shown) [Example 276, 6-chloro-N-[5-(2,2-difluoroethyl)-4-methoxy-pyrimidin-2-yl]-7-methylsulfinyl-1H-indole-3-sulfonamide]
30 | 132 | CCc1cnc(NS(=O)(=O)c2c[nH]c3cc(Cl)ccc23)nc1OC [Example 15, 6-chloro-N-(5-ethyl-4-methoxy-pyrimidin-2-yl)-1H-indole-3-sulfonamide]
31 | 49 | COc1nc(NS(=O)(=O)c2csc3nc(Br)ccc23)ncc1CC(F)F [Example 148, 6-bromo-N-[5-(2,2-difluoroethyl)-4-methoxy-pyrimidin-2-yl]thieno[2,3-b]pyridine-3-sulfonamide]
32 | 47 | COc1nc(NS(=O)(=O)c2csc3cc(Br)ccc23)ncc1OCCF [Example 158, 6-bromo-N-[5-(2-fluoroethoxy)-4-methoxy-pyrimidin-2-yl]benzothiophene-3-sulfonamide]
33 | 46 | COc1nc(NS(=O)(=O)c2c[nH]c3nc(C(F)F)ccc23)nc(OC)c1CCC#N [Example 239, N-[5-(2-cyanoethyl)-4,6-dimethoxy-pyrimidin-2-yl]-6-(difluoromethyl)-1H-pyrrolo[2,3-b]pyridine-3-sulfonamide]
34 | 45 | COc1nc(NS(=O)(=O)c2c[nH]c3c(OC4CC4)c(Cl)ccc23)ncc1CCC(F)F [Example 212, 6-chloro-7-(cyclopropoxy)-N-[5-(3,3-difluoropropyl)-4-methoxy-pyrimidin-2-yl]-1H-indole-3-sulfonamide]
35 | 30 | COc1nc(NS(=O)(=O)c2c[nH]c3cc(Br)ccc23)nc(OC)c1OCCF [Example 91, 6-bromo-N-[5-(2-fluoroethoxy)-4,6-dimethoxy-pyrimidin-2-yl]-1H-indole-3-sulfonamide]
36 | 23 | COc1nc(NS(=O)(=O)c2c[nH]c3c(Br)c(Cl)ccc23)ncc1CCC(F)F [Example 183, 7-bromo-6-chloro-N-[5-(3,3-difluoropropyl)-4-methoxy-pyrimidin-2-yl]-1H-indole-3-sulfonamide]
37 | 18 | COc1nc(NS(=O)(=O)c2c[nH]c3c(F)c(Cl)ccc23)nc(OC)c1OCC#N [Example 219, 6-chloro-N-[5-(cyanomethoxy)-4,6-dimethoxy-pyrimidin-2-yl]-7-fluoro-1H-indole-3-sulfonamide]
